According to ChEMBL document CHEMBL1128596, “Thienylimidazo[2,1-b]thiazoles as inhibitors of mitochondrial NADH dehydrogenase” (J Med Chem, 1995):

Columns and labels:
[1] = Compound was tested for it's ability to inhibit NADH UBQ reductase activity in beef mitochondrial particles; design: species or system Bos taurus
Bos taurus = organism: Bos taurus; assay: Residual NADH:UBQ:DCIP reductase activity in beef mitochondrial particles; design: concentration or dose not given beside the values
Parascaris equorum = assay: Residual NADH:UBQ:DCIP reductase activity in parascaris mitochondrial particles; design: concentration or dose not given beside the values
[2] = Compound was tested for it's ability to inhibit NADH UBQ reductase activity in parascaris mitochondrial particles

SMILES	IC50 [1] [µM]	residual activity (Bos taurus) [%]	residual activity (Parascaris equorum) [%]	IC50 [2] [µM]
Cc1csc2nc(-c3ccsc3)cn12	210	43	75	
Cn1c(-c2ccccc2)c(/C=C/c2cccs2)[n+]2ccsc12		81	94	
Cn1c(-c2ccccc2)c(/C=C/c2cccs2)[n+]2c1SCC2		77	92	
Clc1cn2cc(-c3cccs3)nc2s1		40	75	
Cn1c(Cl)c(/C=C/c2cccs2)[n+]2c1SCC2		91	88	
c1cc(-c2cn3ccsc3n2)cs1		68	83	
Cn1c(Cl)c(/C=C\c2cccs2)[n+]2c1SCC2		85	92	
Cc1cn2cc(-c3ccsc3)nc2s1	140	40	73	
Cc1csc2nc(-c3cccs3)cn12	90	38	70	380
c1csc(-c2cn3ccsc3n2)c1		57	79	
C=C(C)[C@H]1Cc2c(ccc3c2O[C@@H]2COc4cc(OC)c(OC)cc4[C@@H]2C3=O)O1		34	65	
Cc1cn2cc(-c3cccs3)nc2s1	70	28	59	220
c1csc(-c2cn3c(n2)SCC3)c1		68	88	
